From PubChem BioAssay AID1645848
In brackets after ≈: the same amount, converted by molar mass.

Details: buffer; pH 7.4; 6.0 h; 150.0 µM

Compound	solubility kinetic [µg/mL]
CCC(=O)N1CCN(c2ccc(-n3c(=O)ccc4cnc5ccc(-c6cnc7ccccc7c6)cc5c43)cc2C(F)(F)F)CC1	< 1
COC(=O)CNC(=O)c1nc(-c2ccc(Cl)cc2Cl)c2cnccn12	14.2 (≈ 37.6 µM)
CCOC(=O)c1ccc(N2C(=O)c3n[nH]c(-c4ccco4)c3C2c2ccc(C)cc2)cc1 (stereo not given)	1.45 (≈ 3.38 µM)
CCCCCn1c(=O)[nH]c2cc(C(=O)NCCCN3CCC(C)CC3)ccc2c1=O	> 61
Nc1scc2c(C(=O)O)nn(-c3ccccc3)c(=O)c12	23.9 (≈ 83.1 µM)
Cc1ccc(Nc2nc(-c3ccncc3)nc3ccccc23)cc1F	< 1
CC(=O)c1c(C)[nH]c(C(=O)Nc2cccc([S+](=O)([O-])Nc3ccc(C#N)cc3)c2)c1C	36.8 (≈ 84.3 µM)
COc1ccc(NC(=O)c2[nH]c(C)c(C(C)=O)c2C)cc1S(=O)(=O)N(C)C	3.68 (≈ 9.34 µM)
O=C(c1nc(-c2ccc(Cl)nc2)c2ccccn12)N1CCCC1	2.73 (≈ 8.36 µM)
Cc1ccc(NS(=O)(=O)c2c(C)[nH]c(C)c2C(=O)N2CCCC2)cc1Cl	48 (≈ 121 µM)
CN1C(=O)c2ccccc2[S@](=O)c2ccc(C(=O)NCc3ccc(Br)cc3)cc21	< 1
CCCSc1nc(N[C@@H]2C[C@H]2c2ccc(F)c(F)c2)c2nnn([C@@H]3C[C@H](OCCO)[C@@H](O)[C@H]3O)c2n1	< 1
COc1ccc(C)cc1-n1nnnc1Sc1ncnc2scc(-c3ccc(Br)cc3)c12	2.38 (≈ 4.65 µM)
Cc1ccc(S(=O)(=O)Nc2ccccc2CNc2nc(-c3ccccc3)cs2)cc1	< 1
COc1cc(C2c3c(oc4cc(C)c(C)cc4c3=O)C(=O)N2CCCN2CCOCC2)ccc1O (stereo not given)	> 71
CCOc1ccc(CCNC(=O)c2cc3sccc3n2Cc2ccncc2)cc1OCC	4.18 (≈ 9.31 µM)
CC(=O)Nc1cc(-c2nc(Nc3ccc(F)c(F)c3)c3ccccc3n2)ccn1	< 1
COC(=O)c1ccc2c(c1)nc1n2[C@@H](CNC(C)=O)COC1	> 30
Nc1nc(Nc2ccc(S(N)(=O)=O)cc2)n(C(=S)Nc2c(F)cccc2F)n1	< 1
O=C1CCCCc2cc(O)c(O)cc21	> 28
O=C(Nc1ccc(S(=O)(=O)Nc2nccs2)cc1)c1ccncc1	19.5 (≈ 54.1 µM)
CC(C)NC(=O)c1nc(-c2ccc(Cl)nc2)c2cnccn12	16.5 (≈ 52.2 µM)
CN1CCN(C(=O)Cc2c[nH]c3ncc(-c4ccccc4Oc4ccccc4)cc23)CC1	> 42
O=C(NCc1ccc(S(=O)(=O)c2cccc(C(F)(F)F)c2)cc1)c1cnc2[nH]ncc2c1	5.88 (≈ 12.8 µM)

Compound	solubility kinetic [µg/mL]
Cc1cccc(-n2nc(C)c3c2NC(=O)CSC3c2ccccc2Cl)c1 (stereo not given)	2.15 (≈ 5.61 µM)
Cc1ccc(-c2nnc(N3CCC(C(N)=O)CC3)s2)cc1	14.6 (≈ 48.3 µM)
COc1cccc(CNc2ccc(S(=O)(=O)Nc3ncccn3)cc2)c1O	> 57
Nc1ncc(S(=O)(=O)N2CCOCC2)s1	> 37
CC(C)(C)c1ccc(C(=O)Nc2ccc3c(c2)CCCN3C(=O)c2cccs2)cc1	< 1
CN(C)c1cccc(-c2ccnc(N3CCC(C(N)=O)CC3)n2)c1	39.1 (≈ 120 µM)
COC(=O)[C@H](NC(=O)c1cc(-c2ccccc2)nc2ccccc12)c1ccccc1	< 1
CC(C)c1nc2oc3c(NCCN(C)C)ncnc3c2c2c1COC(C)(C)C2	> 57
CCOC(=O)c1nn(-c2ccc(OC)cc2)c(=O)c2c(N)scc12	5.68 (≈ 16.5 µM)
Cn1cncc1[C@@](N)(c1ccc(Cl)cc1)c1ccc2c(c1)c(-c1cccc(Cl)c1)cc(=O)n2C	< 1
N#Cc1ccccc1Nc1ncc(-c2cccc3ccccc23)o1	< 1
O=C(Nc1ccc(Br)cc1)c1ccc(F)c(S(=O)(=O)NC2CCCCCC2)c1	< 1
COc1cccc(-c2nc(-c3cc4cc(OC)ccc4[nH]c3=O)no2)c1	< 1
CCOc1ccc(CCNC(=O)c2cc3sccc3n2Cc2ccc(-n3cncn3)cc2)cc1OCC	< 1
CC(C)c1ccc2oc3nc(N)c(C(=O)O)cc3c(=O)c2c1	> 44
CCOc1ccc(CCNC(=O)c2cc3sccc3n2Cc2ccc(F)cc2F)cc1OCC	< 1
COc1ccc(NS(=O)(=O)c2ccc(C)cc2)cc1C(=O)Nc1nc(-c2ccccc2)cs1	< 1
Fc1ccccc1-c1nc(NCc2ccc(-c3cccnc3)cc2)c2ccccc2n1	< 1
COc1cccc(CNC(=O)c2c(OC)cc(=O)n3c2CCN(C(=O)c2ccc(C)cc2C)CC3)c1	> 72
O=S(=O)(Nc1nccs1)c1ccc(NCc2cccc(O)c2)cc1	> 53
COC(=O)C1=C(C)NC(C)=C(C(=O)O[C@@H]2CCCN(Cc3ccccc3)C2)[C@@H]1c1cccc([N+](=O)[O-])c1	< 1
Cc1ccc(-n2ncc(C(=O)NCCN3CCC(Cc4ccccc4)CC3)c2C2CCN(C(=O)OC(C)(C)C)CC2)cc1	23.2 (≈ 39.6 µM)
COc1cc2nccc(Oc3ccc(NC(=O)Nc4cc(C)on4)c(Cl)c3)c2cc1OC	< 1
Cc1nc(N2CCN(c3ccccn3)CC2)c2c(C)c(C(=O)Nc3ccc(F)cc3Cl)sc2n1	< 1

Compound	solubility kinetic [µg/mL]
O=C(NCc1ccccc1)c1cn2cc(-c3ccccc3)sc2n1	< 1
O=C(NCCN1CCOCC1)C1CC(=O)N(c2n[nH]c3cc(Br)ccc23)C1 (stereo not given)	32.5 (≈ 74.5 µM)
Cc1ccnc(NC(=S)N2CCN(c3ncc(C(F)(F)F)cc3Cl)CC2)c1	12 (≈ 29 µM)
N#Cc1cc(NC(=O)Nc2nnc(-c3ccncc3)s2)ccc1-c1cn[nH]c1	< 1
CN1C(=O)CN=C(c2ccccc2Cl)c2cc(Cl)ccc21	> 47
CCOc1ccc(CCNC(=O)c2cc3ccccc3n2Cc2ccccn2)cc1OCC	< 1
CC1=C(C(=O)NCc2ccccc2)C(c2ccccc2Br)N=C(Nc2nc3ccccc3o2)N1 (stereo not given)	< 1
Cc1cc(C(=O)Nc2nnc(C3CCCCC3)s2)cs1	< 1
Cc1ccnc(NC(=S)N2CCN(c3ccc(N)cc3)CC2)c1	> 48
CCOc1cc2c(cc1OCC)CN(C(=O)c1cc3sccc3n1Cc1ccccc1)CC2	< 1
O=C(Nc1ccccc1C(=O)Nc1cccc(C(F)(F)F)c1)c1ccccc1	< 1
N#Cc1ccc(NS(=O)(=O)c2ccc(NC(=O)Cc3ccc(F)c(Cl)c3)cc2)cc1	< 1
CCOc1ccccc1N(CC(=O)N1CCOCC1)S(=O)(=O)c1ccc(SC)cc1	> 67
Cc1cc(C)c2nc(-c3ccccn3)cc(C(=O)Nc3ccc(S(=O)(=O)Nc4onc(C)c4C)cc3)c2c1	12 (≈ 22.7 µM)
COc1ccc2c(c1)CCc1c-2n[nH]c1C(=O)N1CCc2c(nc3cc(-c4ccccc4)[nH]n3c2=O)C1	< 1
Cc1cccc(NCc2ccc(O)c3ncccc23)c1	< 1
COc1cc(=O)n2c(c1C(=O)N(C)Cc1cscn1)CCN(C(=O)c1ccc(C)cc1C)CC2	> 71
COc1ccc2nc(C)cc(Nc3ccc(Cl)c(Cl)c3)c2c1	< 1
CC1=C(C(=O)NC2CCCC2)C(c2nn(C)cc2Cl)N=C(Nc2nc3ccccc3o2)N1 (stereo not given)	10 (≈ 22 µM)
Cc1ccc(S(=O)(=O)Nc2cnccc2C(=O)Nc2ccccc2)cc1	> 54
Cc1nn(CCc2nc(-c3ccc(OC(F)F)cc3)cs2)c2[nH]c(=O)cc(C(F)(F)F)c12	< 1
CSc1ccccc1N1CCN(CCCCCC(=O)NC2CCCc3ccccc32)CC1 (stereo not given)	44.7 (≈ 99 µM)
